The subject of this test is MX-1 breast xenograft, nude mice, tumor weight T/C. As to the kind of experiment: NCI In Vivo Anticancer Drug Screen. Data for tumor model Human Mammary Carcinoma MX-1 Xenograft (intrarenal inoculation) in NU/NU Swiss (nude) mice. To be noted: endpoint: mean tumor weight change, higher = larger tumour. The procedure, abridged:
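Read-out: treated (T) over vehicle control (C) ratio of survival or tumor size. Dosing in animals carrying the transplanted tumor.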

[1] abbreviates: dose: 100.0 mg/kg/injection, schedule: Q01DX010 (sc), vehicle: suspension in saline.
The mark [2] stands for this setting: dose: 4.0 mg/kg/injection, schedule: Q04DX003 (sc), vehicle: saline with Tween-80.
The mark [3] stands for this setting: dose: 8.0 mg/kg/injection, schedule: Q04DX003 (sc), vehicle: saline with Tween-80.

Where “and” joins values, the source holds several entries; their conditions need not be identical. Equal values may be shown once. Inconclusive results are not listed.

`CS(=O)(=O)OCCN(CCOS(C)(=O)=O)c1ccc(C=Nc2ccc(-c3csc(COc4ccccc4)n3)cc2)cc1`: the T/C is, setting by setting: (dose: 50.0 mg/kg/injection, schedule: Q01DX010 (sc), vehicle: Klucel (hydroxypropylcellulose) (HPC)) 37 % of control; (dose: 100.0 mg/kg/injection, schedule: Q01DX010 (sc), vehicle: Klucel (hydroxypropylcellulose) (HPC)) -18 % of control; (dose: 200.0 mg/kg/injection, schedule: Q01DX010 (sc), vehicle: Klucel (hydroxypropylcellulose) (HPC)) -84 % of control.
`CC1=CC(=NN=c2cc(C)n([O-])c(C)c2)C=C(C)[N+]1=O`: the T/C (dose: 300.0 mg/kg/injection, schedule: Q04DX003 (sc), vehicle: suspension in saline) is 90 % of control; the T/C (dose: 600.0 mg/kg/injection, schedule: Q04DX003 (sc), vehicle: suspension in saline) is 36 % of control; the T/C (dose: 1200.0 mg/kg/injection, schedule: Q04DX003 (sc), vehicle: suspension in saline) is 112 % of control; the T/C (dose: 2400.0 mg/kg/injection, schedule: Q04DX003 (sc), vehicle: suspension in saline) is 32 % of control.
Consider `CN1c2c(nc(N)[nH]c2=O)NCC1CCNc1ccc(C(=O)NC(CCC(=O)O)C(=O)O)cc1` (centres undefined), for which the T/C runs as follows: (dose: 100.0 mg/kg/injection, schedule: Q01DX010 (sc), vehicle: saline) 83 % of control; under setting [1], 60 % of control; (dose: 200.0 mg/kg/injection, schedule: Q01DX010 (sc), vehicle: saline) 76 % of control; (dose: 400.0 mg/kg/injection, schedule: Q01DX010 (sc), vehicle: saline) 81 % of control; (dose: 400.0 mg/kg/injection, schedule: Q01DX010 (sc), vehicle: suspension in saline) 25 % of control; (dose: 800.0 mg/kg/injection, schedule: Q01DX010 (sc), vehicle: saline) 62 % of control.
Consider `COC(C(=O)C(O)C(C)O)C1Cc2cc3cc(OC4CC(OC(C)=O)C(OC5CC(O)C(OC)C(C)O5)C(C)O4)cc(O)c3c(O)c2C(=O)C1OC1CC(OC2CC(OC3CC(C)(O)C(OC(=O)C(C)C)C(C)O3)C(O)C(C)O2)C(O)C(C)O1` (centres undefined), for which the T/C by setting is: (dose: 1.0 mg/kg/injection, schedule: Q04DX003 (sc), vehicle: saline with Tween-80) 47 % of control; (dose: 1.5 mg/kg/injection, schedule: Q04DX003 (sc), vehicle: saline with Tween-80) 11 % of control and 26 % of control and 28 % of control; (dose: 2.0 mg/kg/injection, schedule: Q04DX003 (sc), vehicle: saline with Tween-80) 49 % of control; under setting [2], 13 % of control; under setting [3], -79 % of control.
As for `C1CN(P2(N3CC3)=NP(N3CC3)(N3CC3)=NP(N3CC3)(N3CC3)=N2)CCO1` (centres undefined), the T/C (dose: 12.5 mg/kg/injection, schedule: Q04DX003 (sc), vehicle: saline) was 36 % of control; the T/C (dose: 25.0 mg/kg/injection, schedule: Q04DX003 (sc), vehicle: saline) was 9 % of control; the T/C (dose: 50.0 mg/kg/injection, schedule: Q04DX003 (sc), vehicle: saline) is -77 % of control and -68 % of control (2×); the T/C (dose: 100.0 mg/kg/injection, schedule: Q04DX003 (sc), vehicle: saline) was -93 % of control.
As to `c1cn[nH]c1`, the T/C was 106 % of control (dose: 75.0 mg/kg/injection, schedule: Q04DX003 (ip), vehicle: saline); 96 % of control (dose: 150.0 mg/kg/injection, schedule: Q04DX003 (ip), vehicle: saline); 69 % of control (dose: 300.0 mg/kg/injection, schedule: Q04DX003 (ip), vehicle: saline); 71 % of control (dose: 600.0 mg/kg/injection, schedule: Q04DX003 (ip), vehicle: saline).
In the case of `CC(=O)C1(O)Cc2c(O)c3c(c(O)c2C(OC2CC(N)C(O)C(C)O2)C1)C(=O)c1ccccc1C3=O` (centres undefined), the T/C was 104 % of control (dose: 0.5 mg/kg/injection, schedule: Q04DX003 (sc), vehicle: water) and 100 % of control (dose: 1.0 mg/kg/injection, schedule: Q04DX003 (sc), vehicle: water).
As to `CCCCC1CCCCCCc2[nH]c(/C=C3\N=C(c4ccc[nH]4)C=C3OC)cc21` (centres undefined), the T/C is, setting by setting: under setting [2], 82 % of control; under setting [3], 107 % of control; (dose: 16.0 mg/kg/injection, schedule: Q04DX003 (sc), vehicle: saline with Tween-80) 105 % of control; (dose: 32.0 mg/kg/injection, schedule: Q04DX003 (sc), vehicle: saline with Tween-80) 80 % of control.
With `CC[N](CC)[Ge]([CH2]C)[CH2]C.CC[N](CC)[Ge]([CH2]C)[CH2]C`, the T/C by setting is: (dose: 12.5 mg/kg/injection, schedule: Q01DX010 (sc), vehicle: saline) 190 % of control; (dose: 25.0 mg/kg/injection, schedule: Q01DX010 (sc), vehicle: saline) 106 % of control; (dose: 50.0 mg/kg/injection, schedule: Q01DX010 (sc), vehicle: saline) 106 % of control.
On to `C[C@]12CCC(=O)C=C1CC[C@@H]1[C@@H]2C(=O)C[C@@]2(C)[C@H]1CC[C@]2(O)C(=O)CO`, for which the T/C is 108 % of control (dose: 300.0 mg/kg/injection, schedule: Q04DX003 (sc), vehicle: Klucel (hydroxypropylcellulose) (HPC)) and 45 % of control (dose: 600.0 mg/kg/injection, schedule: Q04DX003 (sc), vehicle: Klucel (hydroxypropylcellulose) (HPC)).
`O=C1CN(CN2CCOCC2)C(=O)CN1CN1CCOCC1`: the T/C (dose: 25.0 mg/kg/injection, schedule: Q01DX010 (sc), vehicle: suspension in saline) was 117 % of control; the T/C (dose: 50.0 mg/kg/injection, schedule: Q01DX010 (sc), vehicle: suspension in saline) was 119 % of control; the T/C under setting [1] was 161 % of control; the T/C (dose: 200.0 mg/kg/injection, schedule: Q01DX010 (sc), vehicle: suspension in saline) was 87 % of control.
`O=C1c2ccccc2C(=O)c2c(NCCNCCO)ccc(NCCNCCO)c21`: the T/C by setting is: (dose: 4.0 mg/kg/injection, schedule: Q01DX010 (ip), vehicle: water) 59 % of control; (dose: 8.0 mg/kg/injection, schedule: Q01DX010 (ip), vehicle: water) 80 % of control; (dose: 13.33 mg/kg/injection, schedule: Q04DX003 (ip), vehicle: water) 45 % of control; (dose: 13.33 mg/kg/injection, schedule: Q04DX003 (sc), vehicle: water) 65 % of control; (dose: 16.0 mg/kg/injection, schedule: Q01DX010 (ip), vehicle: water) 61 % of control; (dose: 16.0 mg/kg/injection, schedule: Q01DX010 (sc), vehicle: water) 13 % of control and 25 % of control. The T/C is, setting by setting: (dose: 26.65 mg/kg/injection, schedule: Q04DX003 (sc), vehicle: water) 32 % of control; (dose: 32.0 mg/kg/injection, schedule: Q01DX010 (ip), vehicle: water) 20 % of control; (dose: 53.3 mg/kg/injection, schedule: Q04DX003 (ip), vehicle: water) 31 % of control; (dose: 53.3 mg/kg/injection, schedule: Q04DX003 (sc), vehicle: water) 31 % of control.
`C1CNCOC1`: the T/C is 100 % of control (dose: 150.0 mg/kg/injection, schedule: Q04DX003 (sc), vehicle: saline) and 84 % of control (dose: 300.0 mg/kg/injection, schedule: Q04DX003 (sc), vehicle: saline).
Take `CC(C)(C[NH-])C[NH-].[Cl][Pt+2][Cl]`: the T/C reads like this: (dose: 1.5 mg/kg/injection, schedule: Q04DX003 (ip), vehicle: other) 117 % of control; (dose: 1.5 mg/kg/injection, schedule: Q04DX003 (ip), vehicle: water) 4 % of control; (dose: 3.0 mg/kg/injection, schedule: Q04DX003 (ip), vehicle: other) 112 % of control; (dose: 3.0 mg/kg/injection, schedule: Q04DX003 (ip), vehicle: water) -58 % of control; (dose: 6.0 mg/kg/injection, schedule: Q04DX003 (ip), vehicle: water) -84 % of control.
For `CCCCCCNc1nc(NCCCCCC)c2[nH]c(NCCCCCC)nc2n1`, the T/C (dose: 300.0 mg/kg/injection, schedule: Q04DX003 (ip), vehicle: saline with Tween-80) was 75 % of control.

The values are drawn from PubChem BioAssay AID296 (DTP/NCI, 2004).
